Assay results: patent US20220002333A1, “CRYSTALLINE FORM A OF 2'-FLUORO-4'-SUBSTITUTED NUCLEOSIDE ANALOGUE I AND PREPARATION METHOD AND APPLICATION THEREOF” (Henan Genuine Biotech Co., Ltd., priority 2019, published 2022)
Read-outs that look alike come from different tables or passages of the source.

Tests used:
[1] = system: B-cell non-Hodgkin's lymphoma; assay: Anticancer activity on B-cell non-Hodgkin's lymphoma
Description: The anticancer (non-Hodgkin's lymphoma) activity of the crystalline form A of the compound I was determined according to the literature method (Asian Pacific Journal of cancer prevention 2014, 15, 6829).
(§1) The anticancer activity of the crystalline form A of the compound I on B-cell non-Hodgkin lymphoma, lung cancer, gastric cancer, colorectal cancer and leukemia was determined according to the literature method (Wang, Q. et al Biochemical Pharmacology 2011, 81, 848; Asian Pacific Journal of Cancer Prevention 2014, 15, 6829).

lung cancer = assay: Anticancer activity on lung cancer
Description: as §1

leukemia = assay: Anticancer activity on leukemia
Description: as §1

[2] = Stability evaluation of crystalline forms under high temperature, high humidity and light (XRPD); assay type: physicochemical; details: for Stability of crystalline form under high humidity: 40° C. and 75% humidity for five and ten days; for Stability of crystalline form under high temperature: 60° C. for five days and ten days; for Stability in stability evaluation (overall): high temperature, high humidity and light
Description: The crystalline forms of the compound were systematically screened by means of unitary method, binary method, cooling, dissolution (positive and negative), diffusion and so on, and two crystalline forms were found: crystalline form A and amorphous crystalline form B. The stabilities of the crystalline form A and the crystalline form B under high temperature, high humidity and light were evaluated respectively. […] These experimental conditions were as follows: the high temperature condition is 60° C. for five days and ten days; the high humidity condition is 40° C. and 75% humidity for five and ten days; the light conditions were 4500 lux for five and ten days.

[3] = Static electricity and mixing uniformity with excipients / content of compound I in tablets; assay type: physicochemical; details: for Drug content for each tablet: 10 tablets arbitrarily selected, average 1 mg compound I and 149 mg excipients per 150 mg tablet; for Static: solid compound I
Description: After 10 days of storage at 40° C./75% humidity, 80-90% of the solid compound I with amorphous form B is gradually transformed into stable crystalline form A. The compound of crystalline form A is a loose solid. Because the dosage of the compound I for adults with AIDS is only 1-3 mg per day, which is a low amount, the uniform mixing of the compound with an excipient is crucial to ensure the anti HIV effect of the drug.

T-cell lymphoma = assay: Anti-T-cell lymphoma activity in patient-derived tumor xenografts (PDX) mouse model; assay type: in vivo
Description: The inhibitory effect of the crystalline form A of the compound I on T-cell lymphoma was determined by patient-derived tumor xenograft (PDX).
After the patient's T-cell lymphoid carcinoma tissue was sampled, the tissue was transferred to a specific pathogen free (SPF) animal room through a transfer window. In a super clean table, phosphate buffered saline (PBS) buffer with double antibodies, Dulbecco's modified eagle medium (DMEM) medium, Petri dish and ice bag were prepared. An appropriate amount of PBS and DMEM were poured to the Petri dishes on ice. The tissue was taken out and put into PBS for preliminary cleaning, and necrotic and normal tissue was removed. The tissue in PBS was transferred to DMEM. The remaining tissue was cut into small pieces of 20-30 mm^3 patches, which were transplanted into the armpit and back of mice with puncture needles. Each mouse was inoculated with the tissue on one site. The tumors of the inoculated mice were taken out regularly, photographed, and the volume changes thereof were compared (see FIG. 9).

[4] = listed as sheet amorphous solid B

Structure (SMILES)	Inhibitory effect on B-cell non-Hodgkin's lymphoma [1]	Inhibitory effect on lung cancer (lung cancer)	Inhibitory effect on leukemia (leukemia)	Stability of crystalline form under high humidity [2]	Stability of crystalline form under high temperature [2]	Stability in stability evaluation (overall) [2]	Mixing with excipients [3]	Drug content for each tablet [3]	Static [3]	Static ([3]; listed as Crystalline form)	Inhibition of growth of T-cell lymphoma (T-cell lymphoma; dose 2 mg/kg)	Inhibition of growth of T-cell lymphoma (T-cell lymphoma; dose 4 mg/kg)	Inhibition of growth of T-cell lymphoma (T-cell lymphoma; dose 8 mg/kg)	Portion of solid transformed into stable crystalline form A ([2]; after 10 days of storage at 40° C./75% humidity)	Drug content for each tablet ([3]; listed as Amorphous B)	Mixing with excipients [3, 4]	Static ([3]; listed as Amorphous B)	Static [3, 4]
[N-]=[N+]=N[C@]1(CO)O[C@@H](n2ccc(N)nc2=O)[C@@H](F)[C@@H]1O [compound I, 2′-fluoro-4′-substituted nucleoside analogue I]	significant inhibitory effects	significant inhibitory effects	significant inhibitory effects															
[N-]=[N+]=N[C@]1(CO)O[C@@H](n2ccc(N)nc2=O)[C@@H](F)[C@@H]1O [crystalline form A, 2′-fluoro-4′-substituted nucleoside analogue I]				stable	stable	good stability	easy to mix evenly with excipients	0.95 to 1.05 mg	no static electricity	No	significantly inhibit	significantly inhibit	significantly inhibit					
[N-]=[N+]=N[C@]1(CO)O[C@@H](n2ccc(N)nc2=O)[C@@H](F)[C@@H]1O [crystalline form B, 2′-fluoro-4′-substituted nucleoside analogue I]				gradually transformed into crystalline form A	gradually transformed into crystalline form A	generally stable								80-90%	0.5 to 1.5 mg	not easy to mix evenly with excipients	Yes	obvious static electricity
